Assay [1] addresses T1, Peroxisome proliferator-activated receptor alpha (Homo sapiens, UniProt Q07869).
T1 sequence (Q07869 whole entry): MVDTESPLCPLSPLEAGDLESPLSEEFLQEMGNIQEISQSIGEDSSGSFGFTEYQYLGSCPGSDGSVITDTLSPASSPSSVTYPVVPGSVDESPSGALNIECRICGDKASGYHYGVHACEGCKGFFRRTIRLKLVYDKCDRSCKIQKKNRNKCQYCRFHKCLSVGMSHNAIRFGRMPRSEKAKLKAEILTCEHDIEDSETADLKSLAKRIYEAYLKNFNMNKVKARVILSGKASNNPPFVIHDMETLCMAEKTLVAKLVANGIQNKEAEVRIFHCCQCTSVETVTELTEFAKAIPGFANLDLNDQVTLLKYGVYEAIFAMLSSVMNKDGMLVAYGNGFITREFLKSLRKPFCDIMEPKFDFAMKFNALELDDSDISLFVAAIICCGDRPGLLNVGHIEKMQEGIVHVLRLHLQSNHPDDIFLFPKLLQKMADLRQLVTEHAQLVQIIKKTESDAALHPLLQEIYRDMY
Kind of assay: Transactivation of GAL4-tagged human PPARalpha LBD expressed in human HepG2 cells at 100 nM to 100 uM incubated for 20 to 22 hrs by luciferase reporter gene assay. It counts as cell-based. Background: Reporter assays use an easily measured gene product as a stand-in for the process of interest.

In assay [2] the target is T2, Peroxisome proliferator-activated receptor delta (Homo sapiens, UniProt Q03181).
T2 sequence (Q03181 whole entry): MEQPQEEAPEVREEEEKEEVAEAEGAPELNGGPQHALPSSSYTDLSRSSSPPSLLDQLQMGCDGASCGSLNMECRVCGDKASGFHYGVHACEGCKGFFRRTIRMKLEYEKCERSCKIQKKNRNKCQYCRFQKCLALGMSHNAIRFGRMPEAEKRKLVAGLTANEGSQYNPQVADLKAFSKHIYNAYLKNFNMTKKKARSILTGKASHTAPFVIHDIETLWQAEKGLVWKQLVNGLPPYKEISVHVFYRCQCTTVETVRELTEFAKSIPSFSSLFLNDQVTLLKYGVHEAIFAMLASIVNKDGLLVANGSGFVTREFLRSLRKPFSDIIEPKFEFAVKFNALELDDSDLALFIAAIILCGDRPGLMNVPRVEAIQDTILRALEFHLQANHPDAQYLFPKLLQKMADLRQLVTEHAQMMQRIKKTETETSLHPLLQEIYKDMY
Kind of assay: Transactivation of GAL4-tagged human PPARdelta LBD expressed in human HepG2 cells at 100 nM to 100 uM incubated for 20 to 22 hrs by luciferase reporter gene assay. It counts as cell-based.

Assay [3] has as its target T3, Peroxisome proliferator-activated receptor alpha (Homo sapiens) (UniProt Q07869).
T3 sequence (whole entry): T1 sequence (Q07869 whole entry)
Kind of assay: Transactivation of GAL4-tagged human PPARalpha LBD expressed in human HepG2 cells at 100 nM to 100 uM incubated for 20 to 22 hrs by luciferase reporter gene assay relative to clofibric acid. It counts as cell-based.

The target of assay [4] is T4, Peroxisome proliferator-activated receptor gamma (Homo sapiens) (UniProt P37231).
T4 sequence (whole entry): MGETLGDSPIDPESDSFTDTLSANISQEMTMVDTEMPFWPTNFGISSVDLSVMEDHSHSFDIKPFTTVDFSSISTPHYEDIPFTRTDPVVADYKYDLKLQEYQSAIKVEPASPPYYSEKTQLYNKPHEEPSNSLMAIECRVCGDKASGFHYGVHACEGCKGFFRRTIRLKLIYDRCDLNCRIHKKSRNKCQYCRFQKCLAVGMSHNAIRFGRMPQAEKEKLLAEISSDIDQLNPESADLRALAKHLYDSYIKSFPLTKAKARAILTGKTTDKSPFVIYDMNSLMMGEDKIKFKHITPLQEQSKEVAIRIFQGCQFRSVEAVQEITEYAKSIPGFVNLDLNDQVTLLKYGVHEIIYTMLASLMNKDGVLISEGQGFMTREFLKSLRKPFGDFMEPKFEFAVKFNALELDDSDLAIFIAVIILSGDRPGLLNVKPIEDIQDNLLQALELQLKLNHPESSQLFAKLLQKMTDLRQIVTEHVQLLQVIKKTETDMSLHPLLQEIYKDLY
Put plainly: Transactivation of GAL4-tagged human PPARgamma LBD expressed in human HepG2 cells at 100 nM to 100 uM incubated for 20 to 22 hrs by luciferase reporter gene assay relative to rosiglitazone. It counts as cell-based.

Assay [5] has as its target T5, Peroxisome proliferator-activated receptor delta (Homo sapiens) (UniProt Q03181).
T5 sequence (whole entry): T2 sequence (Q03181 whole entry)
Put plainly: Transactivation of GAL4-tagged human PPARdelta LBD expressed in human HepG2 cells at 100 nM to 100 uM incubated for 20 to 22 hrs by luciferase reporter gene assay relative to L165,041. It counts as cell-based.

In assay [6] the target is T6, Peroxisome proliferator-activated receptor gamma (Homo sapiens, UniProt P37231).
T6 sequence (P37231 whole entry): T4 sequence (whole entry)
Kind of assay: Transactivation of GAL4-tagged human PPARgamma LBD expressed in human HepG2 cells at 100 nM to 100 uM incubated for 20 to 22 hrs by luciferase reporter gene assay. It counts as cell-based.

Assay [7] deals with T3, Peroxisome proliferator-activated receptor alpha (Homo sapiens). Put plainly: Agonist activity at PPARalpha in human HepG2 cells assessed as increase in CPT1A RNA expression at 100 uM incubated for 48 hrs by qRT-PCR analysis relative to control. It counts as cell-based. Background: Quantitative PCR measures a nucleic acid by following its amplification.
Assay [8] addresses T5, Peroxisome proliferator-activated receptor delta (Homo sapiens). Kind of assay: Agonist activity at PPARdelta in human HepG2 cells assessed as increase in PDK4 RNA expression at 100 uM incubated for 48 hrs by qRT-PCR analysis relative to control. It counts as cell-based.
Assay [9] concerns the target T4, Peroxisome proliferator-activated receptor gamma (Homo sapiens). Put plainly: Agonist activity at PPARgamma in human HepG2 cells assessed as increase in GLUT1 RNA expression at 100 uM incubated for 48 hrs by qRT-PCR analysis relative to control. It counts as cell-based.
In assay [10] the test system is Liver. Kind of assay: Ex vivo antiinflammatory activity in Sprague-Dawley rat liver assessed as inhibition of LPS-induced PGE2 production at 0.1 to 10 uM incubated for 4 hrs followed by LPS addition by radioimmunoassay. Format: functional, tissue-based.
Assay [11] relates to Cortex. Kind of assay: Ex vivo antiinflammatory activity in Sprague-Dawley rat cortex assessed as inhibition of LPS-induced PGE2 production at 0.1 to 10 uM incubated for 4 hrs followed by LPS addition by radioimmunoassay. Format: functional, tissue-based.
In assay [12] the test system is Liver. Put plainly: Ex vivo antiinflammatory activity in Sprague-Dawley rat liver assessed as inhibition of LPS-induced PGE2 production at 1 uM incubated for 4 hrs followed by LPS addition by radioimmunoassay. It counts as functional, tissue-based.
The test system of assay [13] is Cortex. Kind of assay: Ex vivo antiinflammatory activity in Sprague-Dawley rat cortex assessed as inhibition of LPS-induced PGE2 production at 1 uM incubated for 4 hrs followed by LPS addition by radioimmunoassay. Format: functional, tissue-based.
Assay [14] concerns the target T5, Peroxisome proliferator-activated receptor delta (Homo sapiens). Put plainly: Agonist activity at PPARdelta in human HepG2 cells assessed as increase in PDK4 RNA expression at 2 uM incubated for 48 hrs by qRT-PCR analysis relative to control. Format: cell-based.
Assay [15] has as its target T3, Peroxisome proliferator-activated receptor alpha (Homo sapiens). Kind of assay: Potency index, ratio of EC50 for GL479 to EC50 for test compound for transactivation of GAL4-tagged human PPARalpha LBD expressed in human HepG2 cells incubated for 20 to 22 hrs by luciferase reporter gene assay. Format: cell-based.

Each structure is given as a SMILES string. The source made the active and inactive calls. No cut-off for these calls is given here.

A word on the EC50: it is the midpoint of the concentration-response curve. Read a low EC50 as higher potency in that assay. For `COc1ccc(/N=N/c2ccc(OCCc3ccc(OC(C)(C)C(=O)O)cc3)cc2)cc1`, the EC50 came out at 2400 nM in [1] and 1400 nM in assay [2]. The results for the Emax in [3], in assay [4] and in assay [5] were 32%, 10% and 23%, respectively.
Regarding `CC(C)(Oc1ccc(OCCc2ccc(/N=N/c3ccccc3)cc2)cc1)C(=O)O`, the EC50 in [1] worked out at 250 nM; in assay [6], 6000 nM; in assay [2] it was 2800 nM. Moreover, the Emax in assay [3] is 69%; in [4], 24%; in assay [5], 35%. Further, the outcome (in [7]; in assay [8]; in [9]; with Liver [10]; in the assay on Cortex [11]) was Active.
Consider `Cc1cccc(Nc2cc(Cl)nc(SCC(=O)O)n2)c1C`, for which the result with Liver [12] and with Cortex [13] was Active.
The compound `CCCc1c(OCCCOc2ccc(OCC(=O)O)cc2)ccc(C(C)=O)c1O` came in with an EC50 in [2] of 210 nM. In [14], the result was Active. The outcome with Liver [12] and with Cortex [13] was inactive.
In the case of `CC(C)(Oc1ccc(CCOc2ccc(/N=N/c3ccc(Cl)cc3)cc2)cc1)C(=O)O`, the EC50 stood at 380 nM in [1] and 3100 nM in assay [2]. Also, the Emax in assay [3] is 60%; in assay [4], 12%; in [5], 23%. The Ratio EC50 in assay [15] stood at 5.
Regarding `CC(C)(Oc1ccc(CCOc2ccc(/N=N/c3ccccc3)cc2)cc1)C(=O)O`, the EC50 came to 2100 nM in [1] and 6400 nM in [2]. Besides, the Emax is 56% in assay [3], 13% in assay [4] and 39% in assay [5].
Regarding `CC(C)(Oc1ccc(OCCc2ccc(/N=N/c3ccc(C#N)cc3)cc2)cc1)C(=O)O`, the figures for the EC50 in assay [1] and in assay [2] were 1400 nM and 2800 nM, respectively. In addition, the Emax stood at 61% in assay [3], 12% in assay [4] and 50% in [5].
On the same counts, the results for `CC(C)(Oc1ccc(OCCc2ccc(/N=N/c3ccc(Br)cc3)cc2)cc1)C(=O)O` are 1900 nM, 1100 nM, 35%, 8% and 29%.
For the compound `CCc1ccc(CCOc2ccc(CC3SC(=O)NC3=O)cc2)nc1` (stereo not drawn), the outcome with Liver [12] and in the assay on Cortex [13] was Active.
As for `CC(C)(Oc1ccc(OCCc2ccc(/N=N/c3ccc(C(F)(F)F)cc3)cc2)cc1)C(=O)O`, in assay [1], the EC50 was 2200 nM. For the same compound, the Emax in [3] was found to be 37%; in [4], 9%; in [5] it was 12%.
In the case of `CC(C)(Oc1ccc(CCOc2ccc(/N=N/c3ccc(Br)cc3)cc2)cc1)C(=O)O`, the results for the EC50 in assay [1] and in assay [2] were 810 nM and 3900 nM, respectively. In addition, the Emax in assay [3] was 71%; in [4], 12%; in assay [5] it was 29%. Moreover, in [15], the Ratio EC50 was 3.
Turning to `CC(C)(Oc1ccc(CCOc2ccc(/N=N/c3ccc(C(F)(F)F)cc3)cc2)cc1)C(=O)O`, the EC50 turned out to be 2300 nM in [1] and 1800 nM in [2]. Besides, the figures for the Emax in [3], in assay [4] and in assay [5] were 35%, 8% and 24%, respectively.
For `CC(C)(Oc1ccc(CCOc2ccc(/N=N/c3ccc(C#N)cc3)cc2)cc1)C(=O)O`, the EC50 was found to be 2600 nM in [1] and 6500 nM in [2]. Also, the Emax in [3] was 25%; in [4] it was 12%; in assay [5], 20%.
Regarding `CC(C)(Oc1ccc(CCOc2ccc(/N=N/c3ccc([N+](=O)[O-])cc3)cc2)cc1)C(=O)O`, the EC50 in assay [2] is 4100 nM. The Emax in assay [3] was found to be 11%; in [4], 14%; in [5], 21%.
`CC(C)(Oc1ccc(OCCc2ccc(/N=N/c3ccc([N+](=O)[O-])cc3)cc2)cc1)C(=O)O`: the EC50 in assay [2] was found to be 2300 nM. Further, the Emax in assay [3] came out at 19%; in [4], 10%; in assay [5], 28%.
As to `CC(C)(Oc1ccc(OCCc2ccc(/N=N/c3ccc(Cl)cc3)cc2)cc1)C(=O)O`, the EC50 is 510 nM in assay [1] and 1200 nM in assay [2]. The Emax stood at 52% in assay [3], 10% in [4] and 41% in assay [5].

The record behind these values is ChEMBL document CHEMBL4433217, “Novel Phenyldiazenyl Fibrate Analogues as PPAR α/γ/δ Pan-Agonists for the Amelioration of Metabolic Syndrome” (ACS Med Chem Lett, 2019).
